Data as given in patent publication US11691984B2, “Compounds and methods for DCAF-mediated protein degradation” (The Scripps Research Institute, priority 2018, dated 2023).

Legend:
[1] = molecular target: T1, HA-DCAF16 and FLAG-FKBP12_NLS (Homo sapiens, UniProt P62942+Q9NXF7); test: Co-immunoprecipitation of HA-DCAF16 with FLAG-FKBP12_NLS (ternary complex) in HEK293T cells; format: cell-based; settings: 5 μM, MG132 10 μM, 2 hours
T1 construct: expressed in transfected cells; host or cells: HEK293T stably expressing FLAG-FKBP12_NLS, transiently transfected with HA-DCAF16 (pRK5)
T1 sequence (Q9NXF7 whole entry): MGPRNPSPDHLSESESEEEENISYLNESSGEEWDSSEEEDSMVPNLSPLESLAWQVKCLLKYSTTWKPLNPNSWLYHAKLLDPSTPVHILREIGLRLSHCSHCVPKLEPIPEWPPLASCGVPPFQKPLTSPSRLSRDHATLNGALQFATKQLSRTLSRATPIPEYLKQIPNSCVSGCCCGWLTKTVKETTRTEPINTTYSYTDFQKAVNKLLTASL
T1 sequence (P62942 2-108): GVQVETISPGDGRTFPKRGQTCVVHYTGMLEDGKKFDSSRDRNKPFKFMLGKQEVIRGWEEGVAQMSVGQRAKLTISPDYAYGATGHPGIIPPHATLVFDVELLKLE
T1 sequence (Q16531 whole entry partner): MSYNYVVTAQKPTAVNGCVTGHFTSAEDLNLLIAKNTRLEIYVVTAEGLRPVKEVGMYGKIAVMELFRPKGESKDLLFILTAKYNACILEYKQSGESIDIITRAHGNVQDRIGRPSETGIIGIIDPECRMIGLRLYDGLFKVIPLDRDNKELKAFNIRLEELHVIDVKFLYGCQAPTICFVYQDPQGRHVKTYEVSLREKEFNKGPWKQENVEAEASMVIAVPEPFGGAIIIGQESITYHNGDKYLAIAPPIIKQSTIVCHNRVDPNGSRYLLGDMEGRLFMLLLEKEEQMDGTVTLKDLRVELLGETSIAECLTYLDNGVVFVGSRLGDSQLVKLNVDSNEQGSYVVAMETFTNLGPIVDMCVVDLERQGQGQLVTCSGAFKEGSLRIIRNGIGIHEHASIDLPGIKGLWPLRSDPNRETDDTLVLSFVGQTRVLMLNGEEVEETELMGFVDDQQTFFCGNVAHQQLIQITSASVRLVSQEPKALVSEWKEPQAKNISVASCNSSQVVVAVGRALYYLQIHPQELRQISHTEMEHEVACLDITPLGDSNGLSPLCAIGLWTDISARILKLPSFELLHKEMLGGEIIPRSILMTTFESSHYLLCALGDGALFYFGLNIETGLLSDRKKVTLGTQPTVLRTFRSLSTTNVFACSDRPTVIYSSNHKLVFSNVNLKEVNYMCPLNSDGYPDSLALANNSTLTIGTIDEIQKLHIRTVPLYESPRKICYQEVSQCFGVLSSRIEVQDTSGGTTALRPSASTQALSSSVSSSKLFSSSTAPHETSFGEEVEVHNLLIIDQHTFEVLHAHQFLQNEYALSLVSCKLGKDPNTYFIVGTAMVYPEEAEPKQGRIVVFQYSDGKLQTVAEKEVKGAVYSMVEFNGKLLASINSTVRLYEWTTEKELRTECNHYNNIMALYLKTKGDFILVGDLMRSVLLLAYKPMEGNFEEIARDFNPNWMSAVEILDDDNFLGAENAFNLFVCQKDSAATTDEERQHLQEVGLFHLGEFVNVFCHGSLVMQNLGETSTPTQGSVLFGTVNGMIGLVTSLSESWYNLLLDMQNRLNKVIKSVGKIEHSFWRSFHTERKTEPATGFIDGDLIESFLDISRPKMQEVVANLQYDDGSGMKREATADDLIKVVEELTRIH
Procedure: (§1) Cells were collected and lysed in 1% NP-40 lysis buffer (25 mM Tris-HCl pH 7.4, 150 mM NaCl, 10% glycerol, 1% Nonidet P-40) with complete protease inhibitor cocktail (Roche). Cells were vortexed and sonicated for 5 pulses (40%, 4). The supernatant was collected after centrifugation at 16,000 g for 10 min at 4° C. Protein concentration was determined by DC assay (Bio-Rad). Protein lysate was heated at 95° C. for 5 min in 1× Laemmli sample buffer. Proteins were resolved by 12% or 14% Novex Tris-Glycine Mini Gels (Invitrogen) and transferred to polyvinylidene fluoride (PVDF) membrane (0.2 Bio-Rad). The membrane was blocked with 5% BSA in TBST buffer (0.1% Tween 20, 20 mM Tris-HCl 7.6, 150 mM NaCl) at room temperature for 1 h. The antibody was diluted with fresh 5% BSA in TBST buffer (1:10000 dilution for FLAG, HA and β-Actin, 1:1000 dilution for others) and incubated with membrane (1 h room temperature for FLAG, HA and β-Actin, overnight 4° C. for others). Membrane was washed three times with TBST buffer and incubated with secondary antibody (1:5000 dilution in 5% BSA in TBST) at room temperature for 1 h. Membrane was washed three times with TBST buffer. The chemiluminescence signal in membrane was recorded after developing in ECL or ECL plus western blotting detection reagent using CL-XPosure film (Thermo Scientific). Relative band intensities were quantified using ImageJ.
Cells were collected and lysed in 1% NP-40 lysis buffer with complete protease inhibitor cocktail on ice for 10 min, followed by 5 pulses of sonication (40%, 4). After centrifugation at 16,000 g for 10 min at 4° C., the supernatant was collected. FLAG affinity gel (20 μL slurry per sample) was incubated with protein lysates at 4° C. for 1 h and washed four times with IP washing buffer. The affinity gel was heated at 95° C. for 10 min in 2× Laemmli sample buffer, followed by western blot analysis.

DCAF16 = molecular target: T2, DCAF16 (Homo sapiens, UniProt Q9NXF7); test: LC-MS/MS detection of KB02-PEG0-SLF-modified tryptic peptides on DCAF16; format: binding; settings: HA-DCAF16-transfected HEK293T, 10 μM, 2 h
T2 construct: endogenously expressed DCAF16 in HEK293T cells; endogenous in cells; host or cells: HEK293T
T2 sequence (Q9NXF7 whole entry): as the sequence (Q9NXF7 whole entry) above
Procedure: HEK293T cells were transfected with HA-DCAF16 plasmid by PEI transfection reagent for 24 h and treated with DMSO or 10 μM KB02-PEG0-SLF for 2 h. Cells were collected and lysed in 1% NP-40 lysis buffer with complete protease inhibitor cocktail. HA immunoprecipitation was performed with 10 mg of total protein lysates to purify HA-DCAF16. After washing the HA resin three times with IP washing buffer and once with PBS, HA-DCAF16 protein was eluted by heating at 65° C. for 10 min with 8M urea in PBS, then reduced with 12.5 mM DTT at 65° C. for 15 min and alkylated with 25 mM iodoacetamide at 37° C. for 30 min. The protein solution was diluted with PBS to 2M urea and digested with 2 μg trypsin at 37° C. for 6 h. Tryptic peptides were acidified with 5% formic acid and loaded onto a silica capillary column (250 μm) packed with 3 cm of C18 resin (Aqua 5 Phenomenex). Peptides were analyzed on LTQ-Orbitrap Elite mass spectrometer (Thermo Scientific) coupled with a Thermo UltiMate 3000 UHPLC system. Peptides were separated on a capillary column packed with 10 cm of C18 resin (Aqua 5 Phenomenex) and a 5 μm tip. The flow rate was 0.5 μL/min. […]

FLAG-FKBP12_NLS = FLAG-FKBP12_NLS (Homo sapiens, UniProt P62942); test: Western blot of stably expressed FLAG-FKBP12_NLS in MDA-MB-231 cells; format: cell-based; parameters: expressed in transfected cells; host or cells: HEK293T, MDA-MB-231 and HEK293 DCAF16+/+ and DCAF16-/- clones (lentiviral pCDH-CMV-MCS-EF1-Puro); settings: 1 μM, 8 hours
Sequence of FLAG-FKBP12_NLS (P62942 whole entry): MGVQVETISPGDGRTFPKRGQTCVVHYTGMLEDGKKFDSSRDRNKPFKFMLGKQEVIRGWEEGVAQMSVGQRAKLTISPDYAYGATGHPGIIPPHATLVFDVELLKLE
Procedure: FLAG-FKBP12 or FLAG-FKBP12_NLS lentivirus was generated by co-transfection of FLAG-FKBP12 or FLAG-FKBP12_NLS, pCMV-dR8.2 and pMD2.G into HEK 293T cells using FuGene 6 transfection reagent (Promega). Virus-containing medium were collected 48 h after transfection, filtered with […] filter, and used to transduce HEK293T and MDA-MB-231 cells in the presence of 10 μg/mL polybrene (Santa Cruz). 72 h after transduction, puromycin (2 μg/mL) was added to cells. HEK293T cells stably expressing FLAG-FKBP12 or FLAG-FKBP12_NLS were obtained after puromycin selection for 7 days. HEK293T cells stably expressing pCDH empty vector were generated in parallel as control.
as §1

In the case of CCC(C)(C)C(=O)C(=O)N1CCCC[C@H]1C(=O)O[C@H](CCc1ccc(OC)c(OC)c1)c1cccc(NC(=O)COc2ccc3c(c2)CCCN3C(=O)CCl)c1 [KB02-PEG0-SLF, (R)-1-(3-(2-((1-(2-chloroacetyl)-1,2,3,4-tetrahydroquinolin-6-yl)oxy)acetamido)phenyl)-3-(3,4-dimethoxyphenyl)propyl (5)-1-(3,3-dimethyl-2-oxopentanoyl)piperidine-2-carboxylate], the “co-immunoprecipitation of HA-DCAF16 with FLAG-FKBP12_NLS” value [1] is reported as “co-immunoprecipitated with HA-DCAF16”, the “modified DCAF16 tryptic peptide identified” value (DCAF16) is reported as “tryptic peptide (aa 168-184) containing C173 and C177-179” and the “degradation of FLAG-FKBP12_NLS in MDA-MB-231 cells” value (FLAG-FKBP12_NLS) is reported as “degradation of stably expressed FLAG-FKBP12_NLS”.
